Measured values published in PMC5506375 (Journal of medicinal chemistry, 2017).

Tests used:
[1] = target: C. jejuni NCTC 11168 PglD acetyltransferase (Campylobacter jejuni subsp. jejuni serotype O:2, UniProt Q0P9D1); experiment: continuous C. jejuni PglD inhibition assay; assay type: biochemical; conditions: for Km: PglD substrates
solubility properties = assay type: physicochemical
[2] = long-term stability in solution; assay type: physicochemical
C jejuni PglD [3] = target: T1, C jejuni PglD (Campylobacter jejuni subsp. jejuni serotype O:2, UniProt Q0P9D1); experiment: PglD inhibition assay with varying substrate concentrations; assay type: biochemical
C jejuni PglD [4] = target: T1, C jejuni PglD; experiment: dynamic light scattering of PglD/inhibitor complex; conditions: apo PglD 31% PDI
S. typhimurium = conditions: mouse infection model; cited from earlier work
F. tularensis = conditions: both pre- and post-infection; cited from earlier work
[5] = at therapeutic doses; cited from earlier work
pathogen growth = conditions: in vitro; cited from earlier work

C. jejuni NCTC 11168 PglD acetyltransferase, sequence (Q0P9D1 whole entry): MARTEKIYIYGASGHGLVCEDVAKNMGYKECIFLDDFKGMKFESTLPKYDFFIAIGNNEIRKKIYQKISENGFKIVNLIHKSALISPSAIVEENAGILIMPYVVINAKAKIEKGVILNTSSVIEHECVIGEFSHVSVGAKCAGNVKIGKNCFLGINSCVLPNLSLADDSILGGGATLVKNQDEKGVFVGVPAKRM
T1 sequence (Q0P9D1 whole entry): as above

CC(=O)SCCNC(=O)CCNC(=O)[C@H](O)C(C)(C)COP(=O)(O)OP(=O)(O)OC[C@H]1O[C@@H](n2cnc3c(N)ncnc32)[C@H](O)[C@@H]1OP(=O)(O)O [AcCoA, acetyl coenzyme A]
Km [1]: 295 µM

Cc1c(C(=O)O)sc2nc(/C=C/c3ccc4[nH]ccc4c3)[nH]c(=O)c12 [Compound 4]
solubility properties (solubility properties): poor solubility properties
long-term stability in solution [2]: poor long-term stability in solution

COc1cc(CCNc2nc(CCc3ccccc3)nc3sc(C(=O)O)c(C)c23)cc(OC)c1 [Compound 37, 4-((3,5-Dimethoxyphenethyl)amino)-5-methyl-2-phenethylthieno[2,3-d]pyrimidine-6-carboxylic acid]
decrease in potency (C jejuni PglD [3]; 2-fold increase in AcCoA): 2 fold
decrease in potency (C jejuni PglD [3]; 5-fold increase in AcCoA): 4 fold
effect of higher UDP-4-amino-sugar concentrations on the inhibition (C jejuni PglD [3]; significantly higher UDP-4-amino-sugar concentrations): no measurable effect

CNc1nc(CCc2ccccn2)nc2sc(C(=O)O)c(C)c12 [Compound 43, 5-Methyl-4-(methylamino)-2-(2-(pyridin-2-yl)ethyl)thieno[2,3-d]pyrimidine-6-carboxylic acid]
enhancement of potency versus 17 ([1]; 43 vs 17): 4.8 fold

CO[C@H](CNc1nc(CCc2ccc(NC(C)=O)cc2)nc2sc(C(=O)O)c(C)c12)c1ccccc1 [Compound 55, (S)-2-(4-Acetamidophenethyl)-4-((2-methoxy-2-phenylethyl)amino)-5-methylthieno[2,3-d]pyrimidine-6-carboxylic acid]
polydispersity index (PDI) of PglD/inhibitor complex (C jejuni PglD [4]): 24 % PDI

O=S(=O)(Nc1ccccc1)c1ccc(NC(=S)Nc2ccccc2)cc1 [Compound 56, N-phenyl-4-(3-phenylthioureido)benzenesulfonamide]
efficacy against S. typhimurium (S. typhimurium): prophylactic efficacy
protection against F. tularensis (F. tularensis): provided protection
toxicity [5]: not toxic
effect on pathogen growth (pathogen growth): did not affect pathogen growth

CC(=O)N[C@H]1[C@@H](OP(=O)(O)OP(=O)(O)OC[C@H]2O[C@@H](n3ccc(=O)[nH]c3=O)[C@H](O)[C@@H]2O)O[C@H](C)[C@@H](N)[C@@H]1O [UDP-4-amino-sugar]
Km [1]: 274 µM
